Test results from ChEMBL document CHEMBL3860093, “Cyclic peptide-based potent and selective SIRT1/2 dual inhibitors harboring Nε-thioacetyl-lysine” (Bioorg Med Chem Lett, 2016).

Legend:
[1] = target: T1, NAD-dependent protein deacetylase sirtuin-1 (Homo sapiens, UniProt Q96EB6); test: Inhibition of recombinant human GST or His6-tagged SIRT1 using H2N-HK-[Nepsilon-acetyl-lysine]-LM-COOH as substrate incubated for 10 mins in presence of beta-NAD+ by HPLC based assay
T1 sequence (Q96EB6 whole entry): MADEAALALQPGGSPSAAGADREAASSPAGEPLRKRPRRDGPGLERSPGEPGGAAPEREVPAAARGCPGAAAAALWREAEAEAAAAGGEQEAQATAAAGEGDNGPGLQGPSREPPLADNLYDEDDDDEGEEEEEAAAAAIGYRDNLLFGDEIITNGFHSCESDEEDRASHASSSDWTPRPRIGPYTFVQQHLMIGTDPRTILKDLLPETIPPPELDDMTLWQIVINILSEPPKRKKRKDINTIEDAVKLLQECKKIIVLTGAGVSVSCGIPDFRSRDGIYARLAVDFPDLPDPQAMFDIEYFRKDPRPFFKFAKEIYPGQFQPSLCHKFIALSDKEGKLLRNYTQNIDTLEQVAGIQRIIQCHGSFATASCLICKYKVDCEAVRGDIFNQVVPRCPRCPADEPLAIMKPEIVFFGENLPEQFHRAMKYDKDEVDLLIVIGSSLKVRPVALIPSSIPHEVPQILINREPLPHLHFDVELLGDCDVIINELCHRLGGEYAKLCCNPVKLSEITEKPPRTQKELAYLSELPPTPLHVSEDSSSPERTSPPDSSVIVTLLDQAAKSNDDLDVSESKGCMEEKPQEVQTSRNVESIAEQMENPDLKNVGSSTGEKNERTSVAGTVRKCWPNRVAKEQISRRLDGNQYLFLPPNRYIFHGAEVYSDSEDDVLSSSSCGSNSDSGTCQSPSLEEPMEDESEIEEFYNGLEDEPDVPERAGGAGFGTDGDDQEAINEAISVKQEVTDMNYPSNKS

[2] = target: T2, NAD-dependent protein deacetylase sirtuin-2 (Homo sapiens, UniProt Q8IXJ6); test: Inhibition of recombinant human His6-tagged SIRT2 using H2N-HK-[Nepsilon-acetyl-lysine]-LM-COOH as substrate incubated for 12 mins in presence of beta-NAD+ by HPLC based assay
T2 sequence (Q8IXJ6 whole entry): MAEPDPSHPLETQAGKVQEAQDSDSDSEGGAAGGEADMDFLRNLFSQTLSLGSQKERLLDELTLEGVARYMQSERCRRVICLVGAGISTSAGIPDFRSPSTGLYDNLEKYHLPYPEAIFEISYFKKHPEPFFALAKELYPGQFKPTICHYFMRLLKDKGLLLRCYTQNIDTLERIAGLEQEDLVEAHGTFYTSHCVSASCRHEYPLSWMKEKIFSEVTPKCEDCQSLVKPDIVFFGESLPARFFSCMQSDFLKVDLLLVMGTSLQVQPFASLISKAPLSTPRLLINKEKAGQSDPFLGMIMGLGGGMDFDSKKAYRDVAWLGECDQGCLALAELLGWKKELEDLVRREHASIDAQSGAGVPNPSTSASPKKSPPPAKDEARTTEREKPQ

[3] = target: T3, NAD-dependent protein deacetylase sirtuin-3, mitochondrial (Homo sapiens, UniProt Q9NTG7); test: Inhibition of recombinant human His6-tagged SIRT3 using H2N-HK-[Nepsilon-acetyl-lysine]-LM-COOH as substrate incubated for 10 mins in presence of beta-NAD+ by HPLC based assay
T3 sequence (Q9NTG7 whole entry): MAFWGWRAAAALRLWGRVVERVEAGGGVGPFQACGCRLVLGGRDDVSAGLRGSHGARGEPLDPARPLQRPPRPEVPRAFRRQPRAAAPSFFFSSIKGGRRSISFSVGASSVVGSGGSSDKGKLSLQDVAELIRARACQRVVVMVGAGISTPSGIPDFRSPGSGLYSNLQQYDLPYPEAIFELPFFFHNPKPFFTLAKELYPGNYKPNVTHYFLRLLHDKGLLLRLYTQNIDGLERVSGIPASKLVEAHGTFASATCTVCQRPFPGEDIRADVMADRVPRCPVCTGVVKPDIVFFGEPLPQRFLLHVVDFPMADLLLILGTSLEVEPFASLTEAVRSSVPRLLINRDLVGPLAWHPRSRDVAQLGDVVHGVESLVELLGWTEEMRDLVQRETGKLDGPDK

Homo sapiens [4] = species: Homo sapiens; test: Selectivity ratio of IC50 for recombinant human His6-tagged SIRT3 to IC50 for recombinant human GST or His6-tagged SIRT1
Homo sapiens [5] = species: Homo sapiens; test: Selectivity ratio of IC50 for recombinant human His6-tagged SIRT3 to IC50 for recombinant human His6-tagged SIRT2
[6] = Stability of compound assessed as Streptomyces griseus pronase-mediated compound hydrolysis up to 6 mins by HPLC analysis; type: ADME; conditions: 0.1 h
[7] = target: NAD-dependent protein deacylase sirtuin-5, mitochondrial (Homo sapiens, UniProt Q9NXA8); test: Inhibition of recombinant human GST-tagged SIRT5 using CH3CONH-AR-[Nepsilon-succinyl-lysine]-ST-CONH2 as substrate incubated for 5 mins in presence of beta-NAD+ by HPLC based assay
Chain of NAD-dependent protein deacylase sirtuin-5, mitochondrial (Q9NXA8 whole entry): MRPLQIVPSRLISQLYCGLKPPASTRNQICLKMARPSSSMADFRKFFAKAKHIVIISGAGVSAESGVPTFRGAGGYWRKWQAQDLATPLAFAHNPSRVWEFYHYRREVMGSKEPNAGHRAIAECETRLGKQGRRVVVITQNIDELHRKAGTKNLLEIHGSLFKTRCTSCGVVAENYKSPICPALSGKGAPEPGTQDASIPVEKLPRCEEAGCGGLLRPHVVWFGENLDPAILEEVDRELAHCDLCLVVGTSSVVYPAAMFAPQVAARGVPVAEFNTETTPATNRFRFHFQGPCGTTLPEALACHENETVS

[8] = target: NAD-dependent protein deacylase sirtuin-6 (Homo sapiens, UniProt Q8N6T7); test: Inhibition of recombinant human His6-tagged SIRT6 using H2N-EALPK-[Nepsilon-myristoyl-lysine]-TGGPQ-CONH2 as substrate incubated for 12 mins in presence of beta-NAD+ by HPLC based assay
Chain of NAD-dependent protein deacylase sirtuin-6 (Q8N6T7 whole entry): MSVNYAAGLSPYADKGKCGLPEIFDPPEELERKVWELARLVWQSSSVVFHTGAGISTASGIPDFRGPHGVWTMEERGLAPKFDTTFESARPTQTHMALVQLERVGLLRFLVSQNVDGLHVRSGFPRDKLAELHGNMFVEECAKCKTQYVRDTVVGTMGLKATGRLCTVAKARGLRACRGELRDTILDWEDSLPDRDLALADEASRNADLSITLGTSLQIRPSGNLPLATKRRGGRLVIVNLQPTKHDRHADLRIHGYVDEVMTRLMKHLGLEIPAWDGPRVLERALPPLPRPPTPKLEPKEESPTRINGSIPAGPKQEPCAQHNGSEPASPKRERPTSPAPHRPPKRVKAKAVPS

[9] = Stability of compound assessed as Streptomyces griseus pronase-mediated compound hydrolysis up to 40 mins by HPLC analysis; type: ADME
[10] = Stability of compound assessed as Streptomyces griseus pronase-mediated compound hydrolysis up to 60 mins by HPLC analysis; type: ADME; conditions: 1 h
[11] = target: T4, NAD-dependent protein deacetylase sirtuin-1 (Homo sapiens) (UniProt Q96EB6); test: Inhibition of SIRT1 in human HCT116 cells assessed as increase in p53 acetylation at lysine-382 residue after 8 hrs by Western blot assay; type: cell-based; conditions: HCT-116
T4 sequence (whole entry): T1 sequence (Q96EB6 whole entry)

An IC50 [1] of 37.5 µM and an IC50 [2] of 20.3 µM were found for CC(C(=O)Nc1cccc(/N=C/c2c(O)ccc3ccccc23)c1)c1ccccc1 (stereo unspecified) [SALERMIDE] in this work.

An IC50 [1] of 3.84 µM, an IC50 [2] of 3.9 µM and an IC50 [3] of 3.39 µM were found for CC(=S)NCCCC[C@@H]1NC(=O)CNC(=O)CCCCCCC(=O)NCCCC[C@@H](C(N)=O)NC1=O in this work. It also gave a Ratio IC50 (Homo sapiens [4]) of 0.9 and a Ratio IC50 (Homo sapiens [5]) of 0.9.

With H-HKK(Ac)LM-OH the Stability [6] was “Unstable”.

An IC50 [3] of 25.7 µM was found for CN(C)CCCCC(=O)Nc1ccc(NC(=S)NC(=O)c2ccc(C(C)(C)C)cc2)cc1 in this work.

An IC50 [1] of 0.82 µM, an IC50 [2] of 0.42 µM and an IC50 [3] of 1.48 µM were found for CCCC[C@@H]1NC(=O)CCCCCCC(=O)NCC[C@@H](C(N)=O)NC(=O)[C@H](CCCCNC(C)=S)NC1=O in this work. The Ratio IC50 (Homo sapiens [4]) was 1.8 and the Ratio IC50 (Homo sapiens [5]) was 3.5.

An IC50 [1] of 0.68 µM, an IC50 [2] of 0.48 µM and an IC50 [3] of 3.18 µM were found for CC(=S)NCCCC[C@@H]1NC(=O)[C@H](Cc2csc3ccccc23)NC(=O)CCCCCCC(=O)NCCC[C@@H](C(N)=O)NC1=O in this work. The IC50 [7] was > 300 µM, the IC50 [8] was > 2000 µM and the Ratio IC50 (Homo sapiens [4]) was 4.7. It also gave a Ratio IC50 (Homo sapiens [5]) of 6.6.

An IC50 [1] of 0.22 µM, an IC50 [2] of 0.24 µM and an IC50 [3] of 0.47 µM were found for CCCC[C@@H]1NC(=O)CCCCCCC(=O)NCCCC[C@@H](C(N)=O)NC(=O)[C@H](CCCCNC(C)=S)NC1=O in this work. The Ratio IC50 (Homo sapiens [4]) was 2.1 and the Ratio IC50 (Homo sapiens [5]) was 2.

An IC50 [1] of 0.5 µM, an IC50 [2] of 0.89 µM and an IC50 [3] of 3.82 µM were found for CC(=S)NCCCC[C@@H]1NC(=O)[C@H](Cc2csc3ccccc23)NC(=O)CCCCCCC(=O)NCCCC[C@@H](C(N)=O)NC1=O in this work. The IC50 [7] was > 200 µM, the IC50 [8] was > 1000 µM and the Ratio IC50 (Homo sapiens [4]) was 7.6. The Ratio IC50 (Homo sapiens [5]) was 4.3 and the Stability [9] was “Stable”.

An IC50 [1] of 0.27 µM, an IC50 [2] of 0.22 µM and an IC50 [3] of 1.82 µM were found for CCCC[C@@H]1NC(=O)CCCCCCC(=O)NCCC[C@@H](C(N)=O)NC(=O)[C@H](CCCCNC(C)=S)NC1=O in this work. The Stability [10] was “Stable” and the inhibition [11] was “Dose-dependent effect”.

An IC50 [1] of 0.71 µM, an IC50 [2] of 1.5 µM and an IC50 [3] of 3.5 µM were found for CC(=S)NCCCC[C@@H]1NC(=O)[C@H](Cc2ccc3ccccc3c2)NC(=O)CCCCCCC(=O)NC[C@@H](C(N)=O)NC1=O in this work. The Ratio IC50 (Homo sapiens [4]) was 4.9 and the Ratio IC50 (Homo sapiens [5]) was 2.3.

An IC50 [1] of 0.57 µM, an IC50 [2] of 1.4 µM and an IC50 [3] of 1.94 µM were found for CC(=S)NCCCC[C@@H]1NC(=O)[C@H](Cc2ccc3ccccc3c2)NC(=O)CCCCCCC(=O)NCCCC[C@@H](C(N)=O)NC1=O in this work. It also gave a Ratio IC50 (Homo sapiens [4]) of 3.4 and a Ratio IC50 (Homo sapiens [5]) of 1.4.

An IC50 [1] of 1.27 µM, an IC50 [2] of 1.16 µM and an IC50 [3] of 10 µM were found for CC(=S)NCCCC[C@@H]1NC(=O)[C@H](Cc2csc3ccccc23)NC(=O)CCCCCCC(=O)NCC[C@@H](C(N)=O)NC1=O in this work. The IC50 [7] was > 2000 µM, the IC50 [8] was > 1000 µM and the Ratio IC50 (Homo sapiens [4]) was 7.9. For the same molecule, the Ratio IC50 (Homo sapiens [5]) was 8.6.

An IC50 [1] of 0.45 µM, an IC50 [2] of 0.18 µM and an IC50 [3] of 1.06 µM were found for CCCC[C@@H]1NC(=O)CCCCCCC(=O)NC[C@@H](C(N)=O)NC(=O)[C@H](CCCCNC(C)=S)NC1=O in this work. The Ratio IC50 (Homo sapiens [4]) was 2.4 and the Ratio IC50 (Homo sapiens [5]) was 5.9.

An IC50 [1] of 1.21 µM, an IC50 [2] of 4.24 µM and an IC50 [3] of 2.51 µM were found for CC(=S)NCCCC[C@@H]1NC(=O)[C@H](Cc2csc3ccccc23)NC(=O)CCCCCCC(=O)NC[C@@H](C(N)=O)NC1=O in this work. For the same molecule, the Ratio IC50 (Homo sapiens [4]) was 2.1 and the Ratio IC50 (Homo sapiens [5]) was 0.6.

An IC50 [1] of 22 µM, an IC50 [2] of 24.3 µM and an IC50 [3] of 56.9 µM were found for CC(=S)NCCCC[C@@H]1NC(=O)CNCCC(=O)NCCCC[C@@H](C(N)=O)NC1=O in this work. For the same molecule, the Ratio IC50 (Homo sapiens [4]) was 2.6 and the Ratio IC50 (Homo sapiens [5]) was 2.3.

An IC50 [1] of 0.18 µM, an IC50 [2] of 1.2 µM and an IC50 [3] of 3.2 µM were found for CC(=S)NCCCC[C@@H]1NC(=O)[C@H](Cc2ccc3ccccc3c2)NC(=O)CCCCCCC(=O)NCCC[C@@H](C(N)=O)NC1=O in this work. The Ratio IC50 (Homo sapiens [4]) was 17.8 and the Ratio IC50 (Homo sapiens [5]) was 2.7.

For CC(=S)NCCCC[C@@H]1NC(=O)[C@H](Cc2ccc3ccccc3c2)NC(=O)CCCCCCC(=O)NCC[C@@H](C(N)=O)NC1=O, the IC50 [1] was 1.1 µM, the IC50 [2] was 2.4 µM and the IC50 [7] was > 6000 µM. The IC50 [8] was > 4000 µM and the Stability [10] was “Stable”.
